Data: patent US8008007B2, “S-adenosyl-L-methionine analogs with extended activated groups for transfer by methyltransferases” (RWTH Aachen, priority 2005, dated 2011)

Biological target: T1, M.HhaI-Q82A/N304A (Haemophilus parahaemolyticus, UniProt P05102, N304A/Q82A)
T1 construct: made in house
Experiment: Modification of cytosine-C5 in duplex oligodeoxynucleotide III.IV by M.HhaI-Q82A/N304A, nucleoside analysis by HPLC/ESI-MS
Type: biochemical
Details: duplex III.IV 10 μM, cofactor 300 μM, enzyme 12.5 μM, 37° C. over night
Protocol: After enzymatic transfer the duplex oligodeoxy-nucleotides were enzymatically fragmented and the resulting modified nucleosides were analyzed by reversed-phase HPLC coupled with ESI-MS.
Therefore, the codon for N304 was changed to a codon for alanine by standard Megaprimer PCR mutagenesis (Sambrook and Russell, (2001) Cold Spring Harbor Laboratory Press, 13.31-13.35) and the fragment containing this mutation was cloned into the plasmid containing the Q82A mutation (Example 2B, Example 3B.2. The correct DNA sequence of the complete gene was verified by DNA sequencing. Expression and purification of the Q82A/N304A variant was performed as described for the wild-type enzyme (Kumar et al., (1992) Biochemistry 31, 8648-8653; Klimasauskas et al., (1998) EMBO J. 17, 317-324). The presence of the amino acid substitution was verified by mass spectrometric analysis of purified M.HhaI-Q82A/N304A.
The duplex oligodeoxynucleotide III.IV (compare Scheme 6, Example 2B) was produced by mixing equal molar amounts (2.5 nmol) of complementary single-stranded oligodeoxynucleotide III (5′-[…] CTAT-3′) (SEQ ID NO. 3) and IV (5′-[…]-3′) (SEQ. ID NO. 4) in water, heating at 85° C. for 5 min and slow cooling to room temperature. […] The solution was heated to 80° C. for 10 min, supplemented with Proteinase K and incubated at 55° C. for 2 h. […]

T1 sequence (P05102 whole entry Q82A/N304A): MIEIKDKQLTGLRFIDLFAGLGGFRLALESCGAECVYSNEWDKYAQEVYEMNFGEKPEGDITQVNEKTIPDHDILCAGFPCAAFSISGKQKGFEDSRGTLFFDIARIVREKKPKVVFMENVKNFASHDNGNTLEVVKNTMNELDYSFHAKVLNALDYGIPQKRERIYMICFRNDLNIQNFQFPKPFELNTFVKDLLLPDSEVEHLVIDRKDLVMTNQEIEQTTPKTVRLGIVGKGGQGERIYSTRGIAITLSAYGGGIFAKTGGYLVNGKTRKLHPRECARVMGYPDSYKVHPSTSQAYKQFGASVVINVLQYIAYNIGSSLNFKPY

NCCCC(=O)NCC#CC[S+](CCC(N)C(=O)O)CC1OC(n2cnc3c(N)ncnc32)C(O)C1O (stereo not shown) [Cofactor 10]
cofactor function for M.HhaI-Q82A/N304A (transfer of group Z-R to cytosine-C5): functions as a cofactor
